Experimental findings from patent EP0180045A2, “Benzanthrin compounds” (ABBOTT LABORATORIES, priority 1984, dated 1986) are described below.

In brackets after ≈: the same amount, converted by molar mass.

Broadly, the MIC is the lowest concentration that inhibits growth of the organism.

One experiment relates to Acinetobacter CMX 669. In words: MIC, agar dilution method. It is filed as cell-based. The following applies: Brain Heart Infusion agar, 10^5 CFU inoculum. As for the experimental part: (§1) The antibacterial activity of the compounds of the invention against a variety of microorganisms is illustrated in Table 3. Minimum inhibitory concentrations were determined by the agar dilution method using brain heart infusion agar with 10 ^5 CFU (colony forming units) as the inoculum.

In experiment [1] the test system is Enterobacter aerogenes ATCC 13048. In words: MIC, agar dilution method. It is filed as cell-based. The following applies: Brain Heart Infusion agar, 10^5 CFU inoculum. As for the experimental part:
as §1
(In general: Agar dilution tests growth on a series of plates holding different concentrations.)

Another experiment has as its system Escherichia coli DC-2. The experiment can be described thus: MIC, agar dilution method. The following applies: Brain Heart Infusion agar, 10^5 CFU inoculum. The experiment is classed as cell-based. As to the method:
as §1

The subject of the next experiment is Escherichia coli Juhl. The experiment can be described thus: MIC, agar dilution method. The experiment is classed as cell-based. The following applies: Brain Heart Infusion agar, 10^5 CFU inoculum. As to the method: as §1
Another experiment deals with Escherichia coli SS. In words: MIC, agar dilution method. It is filed as cell-based. The following applies: Brain Heart Infusion agar, 10^5 CFU inoculum. As to the method: as §1
For experiment [2], the system named is Klebsiella pneumoniae ATCC 8045. The experiment can be described thus: MIC, agar dilution method. The following applies: Brain Heart Infusion agar, 10^5 CFU inoculum. The experiment is classed as cell-based. As to the method:
as §1

Experiment [3] concerns Lactobacillus casei ATCC 7469. The experiment can be described thus: MIC, agar dilution method. The following applies: Brain Heart Infusion agar, 10^5 CFU inoculum. It is filed as cell-based. As for the experimental part: as §1
The subject of experiment [4] is Pseudomonas aeruginosa 5007. The experiment can be described thus: MIC, agar dilution method. It is filed as cell-based. The following applies: Brain Heart Infusion agar, 10^5 CFU inoculum. As for the experimental part: as §1
For another experiment, the system named is Pseudomonas cepacia 2961. The experiment can be described thus: MIC, agar dilution method. The experiment is classed as cell-based. The following applies: Brain Heart Infusion agar, 10^5 CFU inoculum. As to the method:
as §1

Another experiment has as its system Sarcina lutea 9341. The experiment can be described thus: MIC, agar dilution method. It is filed as cell-based. The following applies: Brain Heart Infusion agar, 10^5 CFU inoculum. As for the experimental part: as §1
The test system of experiment [5] is Staphylococcus aureus 45 RAR2. The experiment can be described thus: MIC, agar dilution method. The experiment is classed as cell-based. The following applies: Brain Heart Infusion agar, 10^5 CFU inoculum. As to the method: as §1
A further experiment deals with Staphylococcus aureus 45. The experiment can be described thus: MIC, agar dilution method. It is filed as cell-based. The following applies: Brain Heart Infusion agar, 10^5 CFU inoculum. As to the method: as §1
Experiment [6] relates to Staphylococcus aureus A5177. The experiment can be described thus: MIC, agar dilution method. The following applies: Brain Heart Infusion agar, 10^5 CFU inoculum. It is filed as cell-based. As for the experimental part:
as §1

Experiment [7] deals with Staphylococcus aureus ATCC 6538P. The experiment can be described thus: MIC, agar dilution method. It is filed as cell-based. The following applies: Brain Heart Infusion agar, 10^5 CFU inoculum. As to the method: as §1
The test system of experiment [8] is Staphylococcus aureus CMX 686b. In words: MIC, agar dilution method. The experiment is classed as cell-based. The following applies: Brain Heart Infusion agar, 10^5 CFU inoculum. As to the method:
as §1

Experiment [9] deals with Staphylococcus epidermidis 3519 RAR1. In words: MIC, agar dilution method. The experiment is classed as cell-based. The following applies: Brain Heart Infusion agar, 10^5 CFU inoculum. As for the experimental part: as §1
Experiment [10] has as its system Staphylococcus epidermidis 3519. The experiment can be described thus: MIC, agar dilution method. It is filed as cell-based. The following applies: Brain Heart Infusion agar, 10^5 CFU inoculum. As to the method:
as §1

Experiment [11] concerns Streptococcus agalactiae CMX 508. In words: MIC, agar dilution method. The experiment is classed as cell-based. The following applies: Brain Heart Infusion agar, 10^5 CFU inoculum. As to the method: as §1
The subject of experiment [12] is Streptococcus bovis A5169. The experiment can be described thus: MIC, agar dilution method. The experiment is classed as cell-based. The following applies: Brain Heart Infusion agar, 10^5 CFU inoculum. As to the method:
as §1

In experiment [13] the test system is Streptococcus faecium ATCC 8043. In words: MIC, agar dilution method. The experiment is classed as cell-based. The following applies: Brain Heart Infusion agar, 10^5 CFU inoculum. As to the method: as §1
For experiment [14], the system named is Streptococcus pyogenes 930. In words: MIC, agar dilution method. The following applies: Brain Heart Infusion agar, 10^5 CFU inoculum. It is filed as cell-based. As for the experimental part: as §1
Experiment [15] concerns Streptococcus pyogenes EES61. The experiment can be described thus: MIC, agar dilution method. The experiment is classed as cell-based. The following applies: Brain Heart Infusion agar, 10^5 CFU inoculum. As for the experimental part: as §1
Another experiment concerns KB cells. The experiment can be described thus: KB antitumor test (cytotoxicity). It is filed as cell-based, human. The following applies: Tumor Cell 9KB; dose which inhibits growth to 50% of control growth by 3 days after drug addition. As for the experimental part:
The cytotoxic activity of the compounds of the invention can be tested by a KB antitumor test. KB cells are derived from human epidermoid carcinoma of the mouth and are cultivated on Eagel's basal medium plus 10% serum. Stock cells are fed 24 hours before testing. Test drug is added on day 0 or day 1. Results are expressed as the dose which inhibits growth to 50% of control growth by 3 days after drug addition.
When the K8 antitumor test was conducted on benzanthrins A and B, the following test data resulted: […]

Take `Cc1cc2cc(O)c3c(c2c(O[C@@H]2C[C@H](N(C)C)[C@@H](O)[C@@H](C)O2)c1[C@@H]1C[C@H](N(C)C)[C@@H](O)[C@H](C)O1)C(=O)c1cccc(O)c1C3=O` [Benzanthrin A]: the MIC in the experiment on Acinetobacter CMX 669 was determined as 100 µg/mL (≈ 158 µM); in experiment [1], 100 µg/mL (≈ 158 µM); against Escherichia coli DC-2, 100 µg/mL (≈ 158 µM); against Escherichia coli Juhl it was 100 µg/mL (≈ 158 µM); in the experiment with Escherichia coli SS, 3.1 µg/mL (≈ 4.88 µM); in experiment [2], 100 µg/mL (≈ 158 µM). For the same molecule, the MIC in experiment [3] was 0.78 µg/mL (≈ 1.23 µM); in [4] it was 100 µg/mL (≈ 158 µM); with Pseudomonas cepacia 2961 it was 100 µg/mL (≈ 158 µM); against Sarcina lutea 9341, 1.56 µg/mL (≈ 2.46 µM); in experiment [5], 3.1 µg/mL (≈ 4.88 µM); against Staphylococcus aureus 45, 3.1 µg/mL (≈ 4.88 µM). The minimal inhibitory concentration (MIC) was 3.1 µg/mL (≈ 4.88 µM) in [6]; 3.1 µg/mL (≈ 4.88 µM) in experiment [7]; 3.1 µg/mL (≈ 4.88 µM) in experiment [8]; 3.1 µg/mL (≈ 4.88 µM) in experiment [9]; 3.1 µg/mL (≈ 4.88 µM) in [10]; 0.78 µg/mL (≈ 1.23 µM) in [11]. Also, the MIC in experiment [12] was found to be 0.39 µg/mL (≈ 0.614 µM); in experiment [13], 1.56 µg/mL (≈ 2.46 µM); in experiment [14], 0.2 µg/mL (≈ 0.315 µM); in [15], 1.56 µg/mL (≈ 2.46 µM). The same molecule showed an ED50 in the experiment on KB cells of 100 to 300 µg/mL.
As for `Cc1cc2cc(O)c3c(c2c(O[C@@H]2C[C@H](N(C)C)[C@H](O)[C@@H](C)O2)c1[C@@H]1C[C@H](N(C)C)[C@@H](O)[C@H](C)O1)C(=O)c1cccc(O)c1C3=O` [Benzanthrin B], the MIC in experiment [1] is 100 µg/mL (≈ 158 µM); against Escherichia coli DC-2, 100 µg/mL (≈ 158 µM); against Escherichia coli Juhl, 100 µg/mL (≈ 158 µM); in the experiment on Escherichia coli SS, 6.2 µg/mL (≈ 9.77 µM); in experiment [2], 100 µg/mL (≈ 158 µM); in experiment [3], 0.78 µg/mL (≈ 1.23 µM). Moreover, the MIC came out at 100 µg/mL (≈ 158 µM) in experiment [4]; 100 µg/mL (≈ 158 µM) in the experiment with Pseudomonas cepacia 2961; 3.1 µg/mL (≈ 4.88 µM) in experiment [5]; 1.56 µg/mL (≈ 2.46 µM) in the experiment with Staphylococcus aureus 45; 1.56 µg/mL (≈ 2.46 µM) in [6]; 3.1 µg/mL (≈ 4.88 µM) in [7]. Also, the MIC in [8] was determined as 1.56 µg/mL (≈ 2.46 µM); in experiment [9], 3.1 µg/mL (≈ 4.88 µM); in [10], 3.1 µg/mL (≈ 4.88 µM); in [11], 0.39 µg/mL (≈ 0.614 µM); in experiment [12], 0.2 µg/mL (≈ 0.315 µM); in experiment [13], 1.56 µg/mL (≈ 2.46 µM). Moreover, the MIC in experiment [14] stood at 0.2 µg/mL (≈ 0.315 µM); in [15] it was 0.39 µg/mL (≈ 0.614 µM). In addition, in the experiment on KB cells, the ED50 lay in the range of 200 to 300 µg/mL.
